From ChEMBL document CHEMBL1121589, “Synthesis and biological activities of 5-(hydroxymethyl, azidomethyl, or aminomethyl)-2'-deoxyuridine and related 5'-substituted analogues” (J Med Chem, 1980)

Tests used:
Assay type in all cases: functional
L1210 [1] = assay: Compound tested for inhibition of the replication of L1210 cells in cell culture at 200 uM; conditions: Mus musculus
L1210 [2] = assay: Compound tested for inhibition of the replication of L1210 cells in cell culture; conditions: Mus musculus, read-out: ED50 (the source's name)
Human alphaherpesvirus 1 [3] = assay: Kinetic inhibition constant against herpes simplex virus type I pyrimidine deoxyribonucleoside kinase was measured
Human alphaherpesvirus 1 [4] = assay: Antiviral activity against herpes simplex virus type I was measured at 200 uM concentration.
Human alphaherpesvirus 1 [5] = assay: Antiviral activity against herpes simplex virus type I was measured at 400 uM concentration.
L1210 [6] = assay: Compound tested for inhibition of the replication of L1210 cells in cell culture at 7 uM; conditions: Mus musculus
[7] = Inhibitory activity against growth of sarcoma 180 cells at 1 uM; conditions: Mus musculus, read-out: ED50 (the source's name)
Human alphaherpesvirus 1 [8] = assay: Antiviral activity against herpes simplex virus type I was measured at 5 uM concentration.

Q: Which inhibition at 200 µM (L1210 [1]) does the source give for `[N-]=[N+]=NCc1cn([C@H]2C[C@H](O)[C@@H](CO)O2)c(=O)[nH]c1=O` here?
A: 96%

Q: And the EC50 (L1210 [2])?
A: 90 µM

Q: What about the Ki (Human alphaherpesvirus 1 [3]) of the same compound?
A: 0.8 µM

Q: What about the Control (Human alphaherpesvirus 1 [4]) of the same compound?
A: 0.5%

Q: Which Control (Human alphaherpesvirus 1 [5]) does the source give for `NCc1cn([C@H]2C[C@H](O)[C@@H](CN)O2)c(=O)[nH]c1=O` here?
A: 100%

Q: And the Ki (Human alphaherpesvirus 1 [3])?
A: > 500 µM

Q: Which inhibition at 7 µM (L1210 [6]) does the source give for `NCc1cn([C@H]2C[C@H](O)[C@@H](CO)O2)c(=O)[nH]c1=O` here?
A: 93%

Q: What about the Control (Human alphaherpesvirus 1 [5]) of the same compound?
A: 100%

Q: What about the EC50 (L1210 [2]) of the same compound?
A: 2 µM

Q: What about the Ki (Human alphaherpesvirus 1 [3]) of the same compound?
A: 36 µM

Q: What about the EC50 [7] of the same compound?
A: 0.16 µM

Q: With `[N-]=[N+]=NC[C@H]1O[C@@H](n2cc(CO)c(=O)[nH]c2=O)C[C@@H]1O` as the compound, how does the Ki (Human alphaherpesvirus 1 [3]) read?
A: 31 µM

Q: What about the Control (Human alphaherpesvirus 1 [4]) of the same compound?
A: 100%

Q: For `O=c1[nH]c(=O)n([C@H]2C[C@H](O)[C@@H](CO)O2)cc1I` [IDOXURIDINE], which Ki (Human alphaherpesvirus 1 [3]) is on record?
A: 0.4 µM

Q: What about the Control (Human alphaherpesvirus 1 [8]) of the same compound?
A: 2%

Q: Which Ki (Human alphaherpesvirus 1 [3]) does the source give for `O=c1[nH]c(=O)n([C@H]2C[C@H](O)[C@@H](CO)O2)cc1CO` here?
A: 3.5 µM

Q: And the Control (Human alphaherpesvirus 1 [4])?
A: 0.05%

Q: What does the source list for `NC[C@H]1O[C@@H](n2cc(CO)c(=O)[nH]c2=O)C[C@@H]1O`?
A: Control (Human alphaherpesvirus 1 [5]): 100%; Ki (Human alphaherpesvirus 1 [3]): 530 µM

Q: Which Control (Human alphaherpesvirus 1 [5]) does the source give for `[N-]=[N+]=NCc1cn([C@H]2C[C@H](O)[C@@H](CN=[N+]=[N-])O2)c(=O)[nH]c1=O` here?
A: 100%

Q: What about the Ki (Human alphaherpesvirus 1 [3]) of the same compound?
A: 62 µM
